The values that follow come from US8921398B2 (Boehringer Ingelheim International GmbH, priority 2011, dated 2014).

A word on the pEC50: it is −log10 of the EC50, conventionally taken in molar units. A higher pEC50 goes with a small EC50.

pEC50: −log10 of the molar value.

This experiment concerns the target T1, human GPR119 (Homo sapiens, UniProt Q8TDV5).
T1 construct: expression vector for human GPR119 cDNA (Acc. No. NP_848566); expressed in transfected cells
T1 sequence (Q8TDV5 1-335): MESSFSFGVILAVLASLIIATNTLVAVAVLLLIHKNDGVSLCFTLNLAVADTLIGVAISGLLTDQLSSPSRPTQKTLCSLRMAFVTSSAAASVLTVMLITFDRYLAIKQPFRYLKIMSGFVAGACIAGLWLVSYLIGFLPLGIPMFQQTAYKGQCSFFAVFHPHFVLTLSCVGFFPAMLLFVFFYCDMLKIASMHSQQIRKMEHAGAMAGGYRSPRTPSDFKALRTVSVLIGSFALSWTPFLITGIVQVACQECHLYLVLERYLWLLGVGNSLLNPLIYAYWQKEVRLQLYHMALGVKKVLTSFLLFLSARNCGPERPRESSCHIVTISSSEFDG
In words: AlphaScreen cAMP assay in MIN6 cells stably transfected with human GPR119. To be noted: Min-6/hGPR119 cells, 45 minutes incubation at room temperature. Type of experiment: cell-based. The protocol:
The compounds of formula I according to the invention modulate the activity of the G-protein-coupled receptor GPR119. The effect of the compounds on the activation of GPR119 and on the stimulation of intracellular cAMP concentration is determined using the AlphaScreen cAMP Assay Kit (Cat.No.#6760625R) made by PerkinElmer.
MIN6 cells [Miyazaki J et al. Endocrinology. 1990 July; 127(1):126-32] are stably transfected with an expression vector for human GPR119 cDNA (Acc. No. NP_848566). Min-6/hGPR119 cells are cultured in DMEM, 10% FBS, 50 μM β-mercaptoethanol, 0.3 mg/mL Geniticin, 2 mM GlutaMAX at 37° C. 5% CO2. For the assay, the cells are seeded in Optiplates (white, 384-well, 160W-barcoded, TC, sterile with lid, Cat.No.#6007688 (Perkin Elmer); 10000 cells/well; 50 μl). The plates covered with lids are then incubated for 24 hours at 37° C./5% CO2. After the medium is aspirated from the wells completely, 10 μl of the test compound are added, the compounds are diluted using stimulating buffer (140 mM NaCl, 3.6 mM KCl, 0.5 mM NaH2PO4, 0.5 mM MgSO4, 1.5 mM CaCl2, 10 mM Hepes, 5 mM NaHCO3; pH 7.4. 0.5 mM IBMX and 0.1% BSA, the final DMSO concentration is 1%). After 45 minutes incubation at room temperature (approx. 20° C.), the cAMP concentrations are determined using the AlphaScreen cAMP Assay Kit (Cat.No.#6760625R from PerkinElmer).
On the technique in general: In Alpha technology, singlet oxygen from a donor bead excites a nearby acceptor bead.
In turn, `CCc1cnc(N2CCC(N(C(=O)c3ccc(-c4cnco4)nc3)C3CC3)CC2)cn1` [Example 37, N-Cyclopropyl-N-[1-(5-ethyl-pyrazin-2-yl)-piperidin-4-yl]-6-oxazol-5-yl-nicotinamide] had a pEC50 of 7.23.

In the case of `CCc1cnc(N2CCC(N(C(=O)c3cnc(-c4cnco4)cn3)C3CC3)CC2)nc1` [Example 38, 5-Oxazol-5-yl-pyrazine-2-carboxylic acid cyclopropyl-[1-(5-ethyl-pyrimidin-2-yl)-piperidin-4-yl]-amide], the pEC50 is 7.20.

`CCCc1noc(N2CCC(N(C(=O)c3cnc(-c4cnco4)cn3)C3CC3)CC2)n1` [Example 39, 5-Oxazol-5-yl-pyrazine-2-carboxylic acid cyclopropyl-[1-(3-propyl-[1,2,4]oxadiazol-5-yl)-piperidin-4-yl]-amide] showed a pEC50 of 7.17.

For `CCCc1noc(N2CCC(N(C(=O)c3ccc(-c4cnco4)nc3)C3CC3)CC2)n1` [Example 40, N-Cyclopropyl-6-oxazol-5-yl-N-[1-(3-propyl-[1,2,4]oxadiazol-5-yl)-piperidin-4-yl]-nicotinamide], the pEC50 was 7.05.

As for `Cc1cnc(N2CCC(N(C(=O)c3ccc(-c4cnco4)nc3)C3CC3)CC2)nc1` [Example 41, N-Cyclopropyl-N-[1-(5-methyl-pyrimidin-2-yl)-piperidin-4-yl]-6-oxazol-5-yl-nicotinamide], the pEC50 was 6.80.

With `Cc1cnc(N2CCC(N(C(=O)c3ccc(-c4cnco4)nc3)C3CC3)CC2)cn1` [Example 42, N-Cyclopropyl-N-[1-(5-methyl-pyrazin-2-yl)-piperidin-4-yl]-6-oxazol-5-yl-nicotinamide], the pEC50 was 6.64.
